This note sets out measurements from patent US20160108381A1, “DNA POLYMERASES AND MUTANTS THEREOF” (LIFE TECHNOLOGIES CORPORATION, priority 2001, published 2016).

The structures appear in SMILES notation.

The target in test [1] is T1, Caldicellulosiruptor sp. strain Rt69B.1 (RT69B) DNA polymerase, SEQ ID NO:19 (Caldicellulosiruptor saccharolyticus, UniProt Q6X9R7).
T1 sequence (Q6X9R7 with tags, fused parts or gaps): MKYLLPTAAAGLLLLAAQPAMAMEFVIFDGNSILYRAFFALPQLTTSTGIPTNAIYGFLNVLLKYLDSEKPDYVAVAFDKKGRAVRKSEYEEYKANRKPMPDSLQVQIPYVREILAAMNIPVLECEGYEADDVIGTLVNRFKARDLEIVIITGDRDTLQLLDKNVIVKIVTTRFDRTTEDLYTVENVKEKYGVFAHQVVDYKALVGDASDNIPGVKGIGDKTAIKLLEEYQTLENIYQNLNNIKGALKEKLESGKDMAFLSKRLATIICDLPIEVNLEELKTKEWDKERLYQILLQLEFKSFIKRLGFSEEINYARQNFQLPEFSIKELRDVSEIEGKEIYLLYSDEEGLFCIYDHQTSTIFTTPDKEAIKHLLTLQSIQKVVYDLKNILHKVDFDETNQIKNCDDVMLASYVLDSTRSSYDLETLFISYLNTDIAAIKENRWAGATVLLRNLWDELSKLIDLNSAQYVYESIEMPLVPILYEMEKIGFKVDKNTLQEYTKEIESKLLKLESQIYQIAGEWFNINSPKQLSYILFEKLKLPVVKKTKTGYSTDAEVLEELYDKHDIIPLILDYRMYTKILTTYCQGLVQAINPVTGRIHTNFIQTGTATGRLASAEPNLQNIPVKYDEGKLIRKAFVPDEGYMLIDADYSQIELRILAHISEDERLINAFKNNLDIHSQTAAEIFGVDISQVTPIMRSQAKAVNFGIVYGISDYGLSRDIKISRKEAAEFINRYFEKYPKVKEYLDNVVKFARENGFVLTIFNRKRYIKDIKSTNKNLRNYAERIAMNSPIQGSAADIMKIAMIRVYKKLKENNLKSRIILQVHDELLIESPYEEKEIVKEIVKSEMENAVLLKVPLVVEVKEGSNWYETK
Nature of the test: Steady-state kinetics, DNA- and RNA-dependent polymerase activity. The test is classed as biochemical. The note with it: Table 40; dTTP; 72 °C. As for the experimental part:
(§1) Subcloning of genes for Tok13B, Tok7B, and Rt69B. Subcloning of the genes for Tok13B, Tok7B, and Rt69B DNA polymerase was carried out to remove the pelB leader sequence derived from pET26B. This reduced proteolytic degradation of the DNA polymerases from these genes observed in E. coli when the pelB leader was present. Each DNA polymerase gene was removed from pET26B by restriction digestion of the plasmid DNA with NcoI, which cut at the 5′ end of the gene, and BamHI, which cut downstream of the translation stop codon at the 3′ end of the gene. The NcoI-BamHI fragment was ligated into the NcoI and BamHI sites of expression vector pET14B (Novagen Inc., Madison, Wis.). The recombinant plasmids were transformed into the E. coli expression host BL21-AI (Invitrogen Corporation, Carlsbad, Calif.).
(§2) Purification of CA2, B.EA1, Rt41A, Dth, Tok13B, Tok7B, and Rt69B DNA polymerase. E. coli cells (BL21SI, Invitrogen Corporation, Carlsbad, Calif.) bearing the plasmid pET26B with the gene for CA2, B.EA1, Rt41A, or Dth DNA polymerase were grown in 2.8-1 Fembach flasks in LB broth containing no salt and 50 μg/ml kanamycin at 37° C. After the culture reached an A590 of 1.2, expression of DNA polymerase was induced with 0.3 M NaCl for 3 hr. Cells were harvested by centrifugation and stored at −70° C. […]

The target in test [2] is T2, Caldicellulosiruptor sp. strain Tok13B.1 (Tok13B) DNA polymerase, SEQ ID NO:17 (Caldicellulosiruptor saccharolyticus, UniProt Q6X9R9).
T2 sequence (Q6X9R9 with tags, fused parts or gaps): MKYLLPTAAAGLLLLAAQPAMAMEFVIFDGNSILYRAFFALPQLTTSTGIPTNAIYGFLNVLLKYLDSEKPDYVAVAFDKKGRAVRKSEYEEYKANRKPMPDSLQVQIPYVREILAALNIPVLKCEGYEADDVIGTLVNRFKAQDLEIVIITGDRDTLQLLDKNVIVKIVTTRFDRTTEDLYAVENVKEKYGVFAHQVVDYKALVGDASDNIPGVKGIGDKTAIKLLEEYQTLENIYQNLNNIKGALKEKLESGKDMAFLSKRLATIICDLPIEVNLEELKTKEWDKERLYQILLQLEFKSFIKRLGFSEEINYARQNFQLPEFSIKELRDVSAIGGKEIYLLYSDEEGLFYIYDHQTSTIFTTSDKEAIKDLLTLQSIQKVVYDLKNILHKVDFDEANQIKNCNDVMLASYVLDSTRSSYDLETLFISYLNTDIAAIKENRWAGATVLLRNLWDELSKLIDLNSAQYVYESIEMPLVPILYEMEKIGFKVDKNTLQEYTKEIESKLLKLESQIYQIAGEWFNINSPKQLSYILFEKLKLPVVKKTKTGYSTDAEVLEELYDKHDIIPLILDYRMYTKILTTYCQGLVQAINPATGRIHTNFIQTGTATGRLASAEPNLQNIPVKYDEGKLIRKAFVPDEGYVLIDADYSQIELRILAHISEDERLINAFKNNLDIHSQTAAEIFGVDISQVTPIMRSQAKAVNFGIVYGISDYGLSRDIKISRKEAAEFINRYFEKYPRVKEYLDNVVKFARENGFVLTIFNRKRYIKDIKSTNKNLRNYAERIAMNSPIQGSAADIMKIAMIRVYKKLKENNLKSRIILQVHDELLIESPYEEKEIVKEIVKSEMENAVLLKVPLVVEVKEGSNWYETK
Described as above. The class given is biochemical. The note with it: Table 40; dTTP; 72 °C. The protocol:
as §1, §2

Regarding `Cc1cn([C@H]2C[C@H](O)[C@@H](COP(=O)(O)OP(=O)(O)OP(=O)(O)O)O2)c(=O)[nH]c1=O` [dTTP], the “kCAT Ratio (RNA/DNA)” value in test [1] and in test [2] was 0.03 throughout.
